Assay results from patent publication US5968910A, “Compositions containing two or three inhibitors of different HIV reverse transcriptases” (priority 1994, dated 1999).
Converted amounts (≈) assume the structure as drawn. Like-named read-outs stand apart in the source and are kept apart here.

Experiments:
[1] = tested on: HIV-1(IIIB); experiment: Knock-out concentrations: breakthrough of HIV-1(IIIB)-induced cytopathicity in CEM cell cultures; format: cell-based; details: Human immunodeficiency virus 1, IIIB, CCRF-CEM, read-out: HIV-1-induced cytopathicity in cell culture; for activity at 0.1 µg/mL: 0.1 μg/ml; for activity at 0.5 µg/mL: 0.5 μg/ml; for activity at 2.5 µg/mL: 2.5 μg/ml
Method: The culture medium consisted of RPMI 1640 containing 10% fetal bovine serum, 2 mM L-glutamine, and 0.075% NaHCO3. The multiplicity of the initial infection was ~1000 times the CCID50 (50% cell culture infective dose). Passages were performed every 3 to 4 days by adding 0.5 to 1.0 ml of the infected culture supernatant to 5 ml of a suspension containing 4×10^5 uninfected CEM cells per ml. Syncytium formation was used as a parameter of virus breakthrough in the cell cultures. In the drug combination experiments, the compounds were combined at the same initial concentrations as used for the two lowest concentrations in the single-drug experiments.
The drug concentrations were kept constant throughout the whole time period of the experiment (10 subcultivations or 35 days). Then the drugs were removed from the cell cultures, and the cells were further subcultured for at least 5 additional passages.

[2] = target: HIV-1 RT (WT) (Human immunodeficiency virus type 1 group M subtype B, UniProt P03366); experiment: biochemical; details: substrate [2,8-3H]dGTP 2.95 μM, template poly(rC)oligo(dG); read-out: IC50, anti-HIV-1 RT (WT) activity (converted)
Method: The reaction mixture (50 μl) contained 50 mM Tris.HCl, pH 7.8, 5 mM dithiothreitol, […] glutathione, 500 μM EDTA, 150 mM KCl, 5 mM MgCl2, 1.25 μg of bovine serum albumin, a fixed concentration of the labeled substrate [2,8-^3 H]dGTP (2.95 μM, 2 μCi), a fixed concentration of the template/primer poly(C).oligo(dG) (0.1 mM), 0.06% Triton X-100, 5 μl of inhibitor solution [containing various concentrations (5-fold dilutions) of the test compounds], and 5 μl of the RT preparation. The reaction mixtures were incubated at 37° C. for 30 min, at which time 100 μl of calf thymus DNA (150 μg/ml), 2 ml of Na4 P2 07 (0.1 M in 1M HCl), and 2 ml of trichloroacetic acid (10%, v/v) were added. The solutions were kept on ice for 30 min, after which the acid-insoluble material was washed and analyzed for radioactivity.
Compounds I, III, IV and V were evaluated for their inhibitory effect on recombinant HIV-1 RT.

[3] = tested on: HIV-1/TIBO R82150 (100-Ile); experiment: Sensitivity of mutant HIV-1 strain in CEM cell cultures; format: cell-based; details: Human immunodeficiency virus 1, CCRF-CEM; CEM cells, Table 1; read-out: 50% Effective Concentration
Method: (§1) CEM cells were suspended at 250,000 cells per ml of culture medium and infected with wild-type HIV-I(IIIB) or mutant HIV-1 strains at 100 50% cell culture infective doses per ml. Then 100 μl of the infected cell suspensions was added to 200-μl microtiter plate wells containing 100 μl of an appropriate dilution of the test compounds. After 4 days incubation at 37° C., the cell cultures were examined for syncytium formation.

[4] = tested on: HIV-1/Nev (106-Ala); experiment: as above; format: cell-based; details: Human immunodeficiency virus 1, CCRF-CEM; CEM cells, Table 1; read-out: 50% Effective Concentration
Method: as §1

[5] = tested on: HIV-1/TSAO-m^3 T (138-Lys); experiment: as above; format: cell-based; details: Human immunodeficiency virus 1, CCRF-CEM; CEM cells, Table 1; read-out: 50% Effective Concentration
Method: as §1

[6] = tested on: HIV-1/TIBO R82913 (103-Asn); experiment: as above; format: cell-based; details: Human immunodeficiency virus 1, CCRF-CEM; CEM cells, Table 1; read-out: 50% Effective Concentration
Method: as §1

[7] = tested on: HIV-1/Pyr (181-Cys); experiment: as above; format: cell-based; details: Human immunodeficiency virus 1, CCRF-CEM; CEM cells, Table 1; read-out: 50% Effective Concentration
Method: as §1

[8] = tested on: HIV-1(IIIB) (WT); experiment: microbe, parasite or virus in culture; format: cell-based; details: Human immunodeficiency virus 1, IIIB, CCRF-CEM; CEM cells, Table 1; read-out: 50% Effective Concentration
Method: as §1

[9] = 936 h, day 39 post infection, compound absent from day 35
[10] = 1008 h, day 42 post infection, compound absent from day 35
[11] = 1104 h, day 46 post infection, compound absent from day 35
[12] = 1176 h, day 49 post infection, compound absent from day 35
[13] = 1272 h, day 53 post infection, compound absent from day 35

CC(C)Nc1cccnc1N1CCN(C(=O)c2cc3ccccc3[nH]2)CC1 [BHAP U88204, reference compound]
activity at 0.1 µg/mL ([1]; 96 h, day 4 post infection): 0% | activity at 0.5 µg/mL ([1]; 96 h, day 4 post infection): 0% | activity at 2.5 µg/mL ([1]; 96 h, day 4 post infection): 0% | activity at 0.1 µg/mL ([1]; 192 h, day 8 post infection): 12.5% | activity at 0.5 µg/mL ([1]; 192 h, day 8 post infection): 0% | activity at 2.5 µg/mL ([1]; 192 h, day 8 post infection): 0% | activity at 0.1 µg/mL ([1]; 264 h, day 11 post infection): 50% | activity at 0.5 µg/mL ([1]; 264 h, day 11 post infection): 6.25% | activity at 2.5 µg/mL ([1]; 264 h, day 11 post infection): 0% | activity at 0.1 µg/mL ([1]; 336 h, day 14 post infection): 100% | activity at 0.5 µg/mL ([1]; 336 h, day 14 post infection): 6.25% | activity at 2.5 µg/mL ([1]; 336 h, day 14 post infection): 0% | activity at 0.1 µg/mL ([1]; 408 h, day 17 post infection): 100% | activity at 0.5 µg/mL ([1]; 408 h, day 17 post infection): 25% | activity at 2.5 µg/mL ([1]; 408 h, day 17 post infection): 0% | activity at 0.1 µg/mL ([1]; 504 h, day 21 post infection): 100% | activity at 0.5 µg/mL ([1]; 504 h, day 21 post infection): 75% | activity at 2.5 µg/mL ([1]; 504 h, day 21 post infection): 0% | activity at 0.1 µg/mL ([1]; 600 h, day 25 post infection): 100% | activity at 0.5 µg/mL ([1]; 600 h, day 25 post infection): 87.5% | activity at 2.5 µg/mL ([1]; 600 h, day 25 post infection): 0% | activity at 0.1 µg/mL ([1]; 672 h, day 28 post infection): 100% | activity at 0.5 µg/mL ([1]; 672 h, day 28 post infection): 100% | activity at 2.5 µg/mL ([1]; 672 h, day 28 post infection): 0% | activity at 0.1 µg/mL ([1]; 768 h, day 32 post infection): 100% | activity at 0.5 µg/mL ([1]; 768 h, day 32 post infection): 100% | activity at 2.5 µg/mL ([1]; 768 h, day 32 post infection): 0% | activity at 0.1 µg/mL ([1]; 840 h, day 35 post infection): 100% | activity at 0.5 µg/mL ([1]; 840 h, day 35 post infection): 100% | activity at 2.5 µg/mL ([1]; 840 h, day 35 post infection): 0% | activity at 0.1 µg/mL [1, 9]: 100% | activity at 0.5 µg/mL [1, 9]: 100% | activity at 2.5 µg/mL [1, 9]: 0% | activity at 0.1 µg/mL [1, 10]: 100% | activity at 0.5 µg/mL [1, 10]: 100% | activity at 2.5 µg/mL [1, 10]: 0% | activity at 0.1 µg/mL [1, 11]: 100% | activity at 0.5 µg/mL [1, 11]: 100% | activity at 2.5 µg/mL [1, 11]: 0% | activity at 0.1 µg/mL [1, 12]: 100% | activity at 0.5 µg/mL [1, 12]: 100% | activity at 2.5 µg/mL [1, 12]: 0% | activity at 0.1 µg/mL [1, 13]: 100% | activity at 0.5 µg/mL [1, 13]: 100% | activity at 2.5 µg/mL [1, 13]: 0% | IC50 [2]: 1210 nM | EC50 [3]: 0.75 µg/mL (≈ 2.06 µM) | EC50 [4]: 0.4 µg/mL (≈ 1.1 µM) | EC50 [5]: 0.07 µg/mL (≈ 0.193 µM) | EC50 [6]: 1.7 µg/mL (≈ 4.68 µM) | EC50 [7]: 0.4 µg/mL (≈ 1.1 µM) | EC50 [8]: 0.04 µg/mL (≈ 0.11 µM)
